From publication PMC2875737, “Determination of drug-like properties of a novel antileishmanial compound: In vitro absorption, distribution, metabolism, and excretion studies” (Indian Journal of Pharmacology, 2009)
Values after ≈ are worked out from the molar mass of the structure shown. Values joined by “and” are separate entries in the source; they are usually repeats but may differ in a detail not shown here. Equal values may be shown once. Where a name gives a salt, the structure may show the parent alone.

Assays:
[1] = set-up: method as in PMID 14567798, PMID 11841071; settings: cited from earlier work
[2] = Distribution coefficient (Log D) in octanol/PBS pH 7.4
physchem = settings: for solubility at 2 h: 25 °C, pH 7.4, aqueous buffer, kinetic from dmso stock
Method: A 4 μl of 25 mM stock (DMSO) of S-4 was diluted to 200 μl with PBS (pH 7.4) and incubated at 25°C for 2 hours with constant shaking. The undissolved compound, if any, was filtered through the PVDF membrane filter (Millipore, MA). To 120 μl of the filtrate, 80 μl of acetonitrile was added and mixed thoroughly. The concentration of S-4 in the filtrate was determined spectrophotometrically from linearity (5-400μM) of the compound prepared in PBS containing 40% acetonitrile. The observed solubility result was multiplied by 200/120 to account for the acetonitrile addition in the test filtrate.

[3] = set-up: method as in PMID 14567798, PMID 11841071; settings: PBS pH 7.4; cited from earlier work
[4] = Plasma protein binding by equilibrium dialysis; settings: human
Method: The binding of compound to human plasma was determined using equilibrium dialysis with 6-hour incubation with constant shaking at 37°C as per the method described by Kaplita and Liu.[4] The initial concentration of the compound used was 10 μM (DMSO ≤1%). Quantitations were done by HPLC.

human plasma protein = system: human plasma protein; set-up: method as in PMID 14567798, PMID 11841071; settings: cited from earlier work
[5] = PAMPA standards; cited from earlier work
Leishmania donovani [6] = settings: cited from earlier work
[7] = Chemical stability in PBS pH 7.4, simulated gastric fluid and simulated intestinal fluid; format: physicochemical
Method: A 100-μM solution of S-4 was prepared in phosphate buffered saline (PBS), pH 7.4, from a stock of 25 mM in DMSO and was kept at 25°C for 24 hours. Percentage stability was determined based on chromatographic peak area of the sample kept for 24 hours and that of 0 hour (freshly prepared and injected) sample. All the samples were prepared in triplicate.
Similar studies were carried out at 37°C replacing PBS with simulated gastric fluid (SGF) and simulated intestinal fluid (SIF) which were prepared following United States Pharmacopoeia, and stability was checked for upto 2 hours for SGF and 4 hours for SIF.

[8] = Parallel artificial membrane permeability assay (PAMPA); format: in vitro ADME
Method: Millipore acceptor and donor plate (Cat No: MAPB310 and MASSACCEPTOR) were used in the study. […] Incubation was carried out for 16 hours at room temperature in a water-saturated chamber to avoid evaporation from donor wells. […] To a 200 μl acceptor sample, a 100 μl donor solution was added, mixed properly, and this mixture was termed as “equilibrium.” The absorbance of the equilibrium was also determined. Five standard compounds of different permeability (high: […] (1) Calculation: […] where C = (VD × VA)/[(VD + VA)× Area (cm^2) × porosity × time (seconds)] Where VD = volume of donor (ml), VA = volume of acceptor (ml). A linear graph was plotted with observed and reported values for the standard drugs. The experimental method was considered valid for permeability ranking if linear correlation coefficient (R^2) was more than 0.95.

[9] = Distribution coefficient Log D in cyclohexane/PBS pH 7.4; format: physicochemical; settings: PBS pH 7.4, average of three experiments
Method: Log D in cyclohexane/PBS was performed following the similar method as done for Log D in octanol/PBS. Here, 5 mM compound stock was used to prevent precipitation problem with this system and volumes of cyclohexane were 150, 200, 400, and 800 μl.

rat liver microsomes = assay: Metabolism by liver microsomal enzymes; format: in vitro ADME; settings: rat liver microsomes 0.5 mg protein/ml, 10 μM, 1 hour, 37°C, NADPH regeneration system; ± SEM
Method: Ethical clearance was obtained from Animal Ethics Committee of Indian Institute of Chemical Biology for use of animals for the present study. […] The % stability (% compound remaining after metabolism) was calculated as follows:
(3) % Compound remaining=100×(peak area of 1 hour sampl/peak area of 0 hour sample)
For 0 hour sample, the compound was added after addition of ice-cold acetonitrile and then vortexed, followed by centrifugation as mentioned above.

Leishmania donovani [10] = system: Leishmania donovani; set-up: method as in ref 11, 12 = [11]; PMID 11937327; doi:10.1016/s0968-0896(02)00046-9; 11 Sahu NP Pal C Mandal NB Banerjee S Raha M Kundu AP Synthesis of a novel quinoline derivative, 2-(2-Methylquinolin-4ylamino)-N-phenylacetamide: A potential antileishmanial agent Bioorg Med Chem 2002 || [12]; 12 Sahu NP Mondal NB Banerjee S Raha R Chakraborti G Basu A Indian patent No. 191818 2004; settings: cited from earlier work
[11] = set-up: method as in ref 11 = [11]; PMID 11937327; doi:10.1016/s0968-0896(02)00046-9; 11 Sahu NP Pal C Mandal NB Banerjee S Raha M Kundu AP Synthesis of a novel quinoline derivative, 2-(2-Methylquinolin-4ylamino)-N-phenylacetamide: A potential antileishmanial agent Bioorg Med Chem 2002; settings: cited from earlier work
[12] = cited from earlier work
[13] = simulated gastric fluid (SGF), 37°C, 2 hours
[14] = simulated intestinal fluid (SIF), 37°C, 4 hours

COCCc1ccc(OCC(O)CNC(C)C)cc1 (centres unmarked) [Metoprolol tartrate]
Log D octanol/PBS, reported value [1]: −0.30 | logD [2]: -0.25

O=C(O)Cc1ccccc1Nc1c(Cl)cccc1Cl [Diclofenac Sodium]
solubility at 2 h (physchem): > 400 µM | Solubility, reported value [3]: > 400 µM

CN(Cc1cnc2nc(N)nc(N)c2n1)c1ccc(C(=O)N[C@@H](CCC(=O)O)C(=O)O)cc1 [Methotrexate]
fraction unbound at 6 h, 10 μM [4]: 0.493 | Percentage of plasma protein binding, reported value (human plasma protein): 35-57% | Permeability ranking of standard compounds [5]: very low

Cn1c(=O)c2c(ncn2C)n(C)c1=O [Caffeine]
fraction unbound at 6 h, 10 μM [4]: 0.593 | Percentage of plasma protein binding, reported value (human plasma protein): 29-43%

CC/C(=C(/CC)c1ccc(O)cc1)c1ccc(O)cc1 [Diethylstilbesterol]
Solubility (physchem; pH 7.4): 18.94 ± 1.00 µM (≈ 5.08 µg/mL) | Solubility, reported value [3]: 5 to 20 µM

O=C(Nc1ccccc1Cc1nc2ccccc2cc1-c1c[nH]c2ccccc12)C(Cl)Cl [2-(2′′-dichloroacetamidobenzyl)-3-(3′-indoyl)-quinoline]
Antileishmanial activity (Leishmania donovani [6]): significant antileishmanial activity

Cc1cc(NCC(=O)Nc2ccccc2)c2ccccc2n1 [S-4, 2-(2-methylquinolin-4-ylamino)-N-phenylacetamide]
Stability (% remaining) ([7]; 100 μM in PBS pH 7.4, 25°C, 24 hours, HPLC): 99.16 ± 1.32% | remaining at 24 h, 100 μM ([7]; phosphate buffered saline, pH 7.4, 100 μM in PBS pH 7.4, 25°C, 24 hours, HPLC): > 95% | Stability (% remaining) [7, 13]: 101.19± 0.76% | remaining at 2 h, 100 μM [7, 13]: > 95% | Stability (% remaining) [7, 14]: 97.70 ± 0.15% | remaining at 4 h, 100 μM [7, 14]: > 95% | solubility at 2 h (physchem; PBS): 300 ± 6.42 µM (≈ 87.3 µg/mL) | Papp at 16 h, 250 μM ([8]; PBS pH 7.4 (5% DMSO), 16 hours, room temperature, ± SEM, read-out: Log Pe (converted)): 29.5 nm/s | Permeability ranking ([8]; ranking against standard drugs): medium | logD hydrocarbon water ([9]; cyclohexane/PBS): -1.33 | fraction unbound at 6 h, 10 μM [4]: 0.212 | % Parent compound remaining, result (rat liver microsomes): 36.07% and 36.07 ± 4.15% | Reduction of parasite burden in spleen and liver compared with sodium antimony gluconate (Leishmania donovani [10]): significantly more effective than sodium antimony gluconate | Toxicity to different organs [11]: no alarming sign to different organs tested | logD [2]: 0.54

NC(=O)N1c2ccccc2C=Cc2ccccc21 [carbamazepine]
Permeability ranking of standard compounds [5]: high

CC(C)NCC(O)COc1cccc2ccccc12.Cl (centres unmarked) [Propranolol HCl]
Percentage of plasma protein binding, reported value (human plasma protein): 80-93% | Permeability ranking of standard compounds [5]: high

CNC(=C[N+](=O)[O-])NCCSCc1ccc(CN(C)C)o1 [Ranitidine HCl]
fraction unbound at 6 h, 10 μM ([4]; plasma): 0.852 | Percentage of plasma protein binding, reported value (human plasma protein): 10-19%

O=C(CCCN1CCC(O)(c2ccc(Cl)cc2)CC1)c1ccc(F)cc1 [Haloperidol]
solubility at 2 h (physchem): 48.5 ± 3.21 µM (≈ 18.2 µg/mL) | logD hydrocarbon water ([9]; cyclohexane/PBS): 0.52 | Solubility, reported value [3]: 40 to 63 µM | Log D cyclohexane/PBS, reported value [12]: 0.46

CC(=O)CC(c1ccccc1)c1c(O)c2ccccc2oc1=O (centres unmarked) [Warfarin]
logD hydrocarbon water [9]: -1.28 | fraction unbound at 6 h, 10 μM ([4]; plasma): 0.0179 | Percentage of plasma protein binding, reported value (human plasma protein): 99% | Permeability ranking of standard compounds [5]: medium | Log D cyclohexane/PBS, reported value [12]: −1.31
